# Columns and labels:
# [1] = molecular target: T1, acyl-CoA: cholesterol acyltransferase (ACAT) (Rattus norvegicus, UniProt Q7TQM4); assay: ACAT inhibition in vitro (LAI): radiolabeled cholesterol oleate formed from radiolabeled oleic acid in rat liver microsomes; format: biochemical; conditions: concentration required to inhibit the activity of the enzyme by 50%
# T1 construct: tissue preparation containing rat liver microsomes; from tissue; host or cells: rat liver microsomes
# T1 sequence (Q7TQM4 1-524): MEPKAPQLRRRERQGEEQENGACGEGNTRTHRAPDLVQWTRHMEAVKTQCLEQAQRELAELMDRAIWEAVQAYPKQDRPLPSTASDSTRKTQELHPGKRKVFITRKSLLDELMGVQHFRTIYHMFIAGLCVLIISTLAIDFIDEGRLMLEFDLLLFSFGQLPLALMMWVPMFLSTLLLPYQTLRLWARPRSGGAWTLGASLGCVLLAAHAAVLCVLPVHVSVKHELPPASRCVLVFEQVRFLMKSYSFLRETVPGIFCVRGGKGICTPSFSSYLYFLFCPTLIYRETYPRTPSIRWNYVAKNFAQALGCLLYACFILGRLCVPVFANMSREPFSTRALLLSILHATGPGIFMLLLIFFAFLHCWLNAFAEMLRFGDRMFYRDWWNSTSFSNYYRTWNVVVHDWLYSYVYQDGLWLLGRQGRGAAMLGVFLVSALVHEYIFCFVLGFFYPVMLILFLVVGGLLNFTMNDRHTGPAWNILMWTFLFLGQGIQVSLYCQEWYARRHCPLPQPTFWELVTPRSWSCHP
# Method: The ability of representative compounds of the present invention to inhibit ACAT was measured using an in vitro test more fully described in F. J. Field and R. G. Salone, Biochemica et Biophysica Acta, 712:557-570 (1982). The test assesses the ability of a test compound to inhibit the acylation of cholesterol by oleic acid by measuring the amount of radiolabeled cholesterol oleate formed from radiolabeled oleic acid in a tissue preparation containing rat liver microsomes (designated LAI).
# [2] = APCC in vivo screen: change in total cholesterol in rats on high fat, high cholesterol diet; set-up: species or system male Sprague-Dawley rats; conditions: Rattus norvegicus, po, 16 h; 30 mg/kg by gavage, single dose at 4 PM, sacrificed at 8 AM; 5.5% peanut oil, 1.5% cholesterol, 0.5% cholic acid diet; vs control animals given vehicle and diet only; read-out: APCC (% change in TC)
# Description: In one in vivo screen designated APCC, male Sprague-Dawley rats (200-225 g body weight) were randomly divided into treatment groups and dosed at 4 PM with either vehicle (CMC/Tween) or suspensions of invention compounds in vehicle. The normal chow diet was then replaced with a high fat, high cholesterol diet (5.5% peanut oil, 1.5% cholesterol, and 0.5% cholic acid). The rats consumed this diet ad libitum during the night and were sacrificed at 8 AM to obtain blood samples for cholesterol analysis using standard procedures. Statistical differences between mean cholesterol values for the same vehicle were determined using analysis of variance followed by Fisher's least significant test. The results of this trial for representative compounds of the present invention also appear in Table I as the percent change in total cholesterol (%TC) from control animals given vehicle and diet only. All compounds in the APCC test reported in Table 1 were administered by garage at 30 mg/kg.
IC50 [1],Structure (SMILES),change in vivo at 30 mg/kg [2]
212 nM,"CCCCCCCCCCCCn1nnc(C(NC2CCCCC2)C(=O)Nc2c(C(C)C)cccc2C(C)C)n1 (racemic) [Example 36, (±)-N-(2,6-diisopropylphenyl)-2-(2-dodecyl-2H-tetrazol-5-yl)-2-cyclohexylamino-acetamide]",–
2 nM,"CCCCCCCCCCCCn1nnc(/C(=N/OCC)C(=O)Nc2c(C(C)C)cccc2C(C)C)n1 [Example 23, Z-N-(2,6-diisopropylphenyl) -2-(2-dodecyl-2H-tetrazol-5-yl)-2-ethoxyimino-acetamide]",-74%
> 1000 nM,"CCCCCCCCCCCCn1nnc(C(NC(C)=O)C(=O)Nc2c(C(C)C)cccc2C(C)C)n1 (racemic) [Example 32, (±)-N-(2,6-diisopropylphenyl)-2-(2-dodecyl-2H-tetrazol-5-yl)-2-acetylamino-acetamide]",-9%
25 nM,"CCCCCCCCCCCCn1nnnc1/C(=N\OCC)C(=O)Nc1c(C(C)C)cccc1C(C)C [Example 41, E-N-(2,6-Diisopropylphenyl)-2-(1-dodecyl-1H-tetrazol-5-yl)-2-ethoxyimino-acetamide]",-65%
510 nM,"CCCCCCCCCCCCn1nnc(C(=NN)C(=O)Nc2c(C(C)C)cccc2C(C)C)n1 [Example 27, N-(2,6-diisopropylphenyl)-2-(2 dodecyl-2H-tetrazol-5-yl)-2-hydrazono-acetamide]",–
222 nM,"CCCCCCCCCCCCn1nnc(C(C(=O)Nc2c(C(C)C)cc(C(C)C)cc2C(C)C)N2CCCC2)n1 (racemic) [Example 18, (±)-N-2,4,6-triisopropylphenyl-2-(2-dodecyl-2H-tetrazol-5-yl)-2-pyrrolidin-1-yl-acetamide]",-20%
49 nM,"CCCCCCCCCCCCn1nnc(/C(=N\OCC)C(=O)Nc2c(C(C)C)cccc2C(C)C)n1 [Example 24, E-isomer of N-(2,6-diisopropylphenyl)-2-(2-dodecyl-2H-tetrazol-5-yl)-2-ethoxyimino-acetamide]",-31%
43 nM,"CCCCCCCCCCCCn1nnc(C(=NN(C)C)C(=O)Nc2c(C(C)C)cccc2C(C)C)n1 [Example 29, N-(2,6-diisopropylphenyl)-2-(2-dodecyl-2H-tetrazol-5-yl)-2-dimethylhydrazono-acetamide]",-70%
150 nM,"CCCCCCCCCCCCn1nnc(C(=NNc2ccccc2)C(=O)Nc2c(C(C)C)cccc2C(C)C)n1 [Example 28, N-(2,6-diisopropylphenyl)-2-(2-dodecyl-2H-tetrazol-5-yl)-2-phenylhydrazono-acetamide]",-18%

# Further lines, the compound ahead of its results:
Structure (SMILES),IC50 [1],change in vivo at 30 mg/kg [2]
"CCCCCCCCCCCCn1nnc(C(C(=O)Nc2c(C(C)C)cccc2C(C)C)N(CC)CC)n1 (racemic) [Example 7, (±)-2-Diethylamino-N-(2,6-diisopropylphenyl) -2-(2-dodecyl-2H-tetrazol-5-yl)-acetamide]",32 nM,-28%
"CCCCCCCCCCCCn1nnc(C(C(=O)Nc2c(C(C)C)cccc2C(C)C)N2CCSCC2)n1 (racemic) [Example 1, (±)-N-(2,6-diisopropylphenyl) -2-(2-dodecyl-2H-tetrazol-5-yl) -2-thiomorpholin-4-yl-acetamide]",12 nM,-56%
"CCCCCCCCCCCCn1nnc(/C(=N\OC)C(=O)Nc2c(C(C)C)cccc2C(C)C)n1 [Example 13, E-N-(2,6-Diisopropylphenyl)-2-(2-dodecyl-2H-tetrazol-5-yl)-2-methoxyimino-acetamide]",2 nM,-43%
"CCCCCCCCCCCCn1nnc(C(N)C(=O)Nc2c(C(C)C)cccc2C(C)C)n1 (racemic) [Example 10, (±)-2-Amino-N-(2,6-diisopropylphenyl)-2-(2-dodecyl-2H-tetrazol-5-yl)-acetamide]",94 nM,-51%
"CCCCCCCCCCCCn1nnc(C(C(=O)Nc2c(C(C)C)cccc2C(C)C)N(CCO)CCO)n1 (racemic) [Example 8, (±)-2-[Bis-(2-hydroxyethyl)-amino]-N-(2,6-diisopropylphenyl) -2-(2-dodecyl-2H-tetrazol-5-yl)-acetamide]",390 nM,-11%
"CCCCCCCCCCCCn1nnc(C(C(=O)Nc2c(C(C)C)cccc2C(C)C)N2CCN(C)CC2)n1 (racemic) [Example 6, (±)-N-(2,6-Diisopropylphenyl)-2-(2-dodecyl-2-tetrazol-5-yl)-2-(4-methyl-piperazin-1-yl)-acetamide]",86 nM,-51%
"CCCCCCCCCCCCn1nnc(C(C(=O)Nc2c(OC)cc(OC)cc2OC)N2CCCC2)n1 (racemic) [Example 17, (±)-N-(2,4,6-trimethoxyphenyl) -2-(2-dodecyl-2H-tetrazol-5-yl)-2-pyrrolidin-1-yl-acetamide]",40 nM,-67%
"CCCCCCCCCCCCn1nnc(C(C(=O)Nc2c(C(C)C)cccc2C(C)C)N(C)C)n1 (racemic) [Example 9, (±)-N-(2,6-Diisopropylphenyl)-2-dimethylamino-(2-dodecyl-2H-tetrazol-5-yl)-acetamide]",40 nM,-40%
"CCCCCCCCCCCCn1nnc(/C(=N\OC)C(=O)Nc2c(OC)cc(OC)cc2OC)n1 [Example 15, E-2-(2-Dodecyl-2H-tetrazol-5-yl)-2-methoxyimino -N-(2,4,6-trimethoxyphenyl)-acetamide]",28 nM,-70%
"CCCCCCCCCCCCn1nnc(C(C(=O)Nc2c(C(C)C)cccc2C(C)C)N2CCCCC2)n1 (racemic) [Example 3, (±)-N-(2,6-Diisopropylphenyl)-2-(2-dodecyl-2H-tetrazol-5-yl)-2-piperidin-1-yl-acetamide]",15 nM,-47%
"CCCCCCCCCCCCn1nnc(/C(=N/OC)C(=O)Nc2c(C(C)C)cccc2C(C)C)n1 [Example 14, Z-N-(2,6-diisopropylphenyl) -2-(2-dodecyl-2H-tetrazol-5-yl)-2-methoxyiminoacetamide]",40 nM,-19%
"CCCCCCCCCCCCn1nnc(C(C(=O)Nc2c(C(C)C)cccc2C(C)C)n2ccnc2)n1 (racemic) [Example 5, (±)-N-(2,6-Diisopropylphenyl)-2-(2-dodecyl-2H-tetrazol-5-yl) -2-imidazol-1-yl-acetamide]",215 nM,-46%
"CCCCCCCCCCCCn1nnc(C(C(=O)Nc2c(C(C)C)cccc2C(C)C)N2CCOCC2)n1 (racemic) [Example 2, (±)-N-(2,6-Diisopropylphenyl)-2-(2-dodecyl-2H-tetrazol-5-yl)-2-morpholino-4-yl-acetamide]",18 nM,-57%
"CCCCCCCCCCCCn1nnc(C(C(=O)Nc2c(C(C)C)cccc2C(C)C)N2CCCC2)n1 (racemic) [Example 4, (±) -N-(2,6-Diisopropylphenyl)-2-(2-dodecyl-2H-tetrazol-5-yl) -2-pyrrolidinyl-1-yl-acetamide]",9 nM,-59%
"CCCCCCCCCCCCn1nnc(C(=NO)C(=O)Nc2c(C(C)C)cccc2C(C)C)n1 [Example 12, N-(2,6-diisopropylphenyl)-2-(2-dodecyl-2H-tetrazol-5-yl)-2-hydroxyimino-acetamide]",29 nM,–
"CCCCCCCCCCC(C)n1nnc(/C(=N\OC)C(=O)Nc2c(C(C)C)cccc2C(C)C)n1 (stereo not shown) [Example 16, E-N-(2,6-Diisopropylphenyl)-2-(2-(1-methylundecyl) -2H-tetrazol-5-yl)-2-methoxyimino-acetamide]",3 nM,-67%
"CCCCCCCCCCCCn1nnc(C(=O)C(=O)Nc2c(C(C)C)cccc2C(C)C)n1 [Example 11, N-(2,6-diisopropylphenyl)-2-(2-dodecyl-2H-tetrazol-5-yl)-2-oxo-acetamide]",135 nM,-50%

# From patent US5461049A, “Amide tetrazole ACAT inhibitors” (Warner-Lambert Company, priority 1994, dated 1995)
